Data from ChEMBL document CHEMBL6074685, “Design, synthesis and biological evaluation of novel diaryl-substituted fused nitrogen heterocycles as tubulin polymerization inhibitors to overcome multidrug resistance in vitro and in vivo” (Eur J Med Chem, 2025).
pIC50: −log10 of the molar value. Active and inactive are the calls of the source. The rule behind the calls is not given here.

Key:
A549/TR [1] = assay: Antiproliferative activity against human A549/T cell assessed as cell growth inhibition incubated for 48 hrs by MTT assay; type: functional, cell-based
A549 = assay: Antiproliferative activity against human A549 cells assessed as cell growth inhibition incubated for 48 hrs by MTT assay; conditions: A549, 48 h
[2] = Resistance index, ratio of IC50 for human A549/T cells to IC50 for human A549 cells; type: functional
A549/TR [3] = assay: Antiproliferative activity against human A549/T cell assessed as cell growth inhibition in presence of verapamil incubated for 48 hrs by MTT assay; type: functional, cell-based
[4] = Metabolic stability in human liver microsome assessed as half life measured upto 50 mins by LC-MS/MS analysis; type: ADME; conditions: liver microsomes
[5] = Metabolic stability in human liver microsome assessed as intrinsic clearance measured upto 50 mins by LC-MS/MS analysis; type: ADME; conditions: liver microsomes, read-out: CLH
[6] = Metabolic stability in mouse liver microsome assessed as half life measured upto 50 mins by LC-MS/MS analysis; type: ADME; conditions: liver microsomes
[7] = Metabolic stability in mouse liver microsome assessed as intrinsic clearance measured upto 50 mins by LC-MS/MS analysis; type: ADME; conditions: liver microsomes, read-out: CLH

Row | Structure (SMILES) | pIC50 (A549/TR [1]) | pIC50 (A549) | Ratio IC50 [2] | also measured
1 | COc1ccc2nc(-c3ccc(OC)c(F)c3)nc(Nc3cc(OC)c(OC)c(OC)c3)c2c1 | 5.05 | 5.69 | 4.37 | 
2 | COc1ccc(-c2nc(Nc3cc(OC)c(OC)c(OC)c3)c3cc(OC)c(OC)cc3n2)cc1F | < 4.30 | < 4.30 |  | 
3 | COc1ccc(-c2nc3c(c(Nc4cc(OC)c(OC)c(OC)c4)n2)CCCC3)cc1F | 4.93 | 4.98 | 1.12 | 
4 | COc1ccc(-c2cc3c([nH]c(=O)n3-c3cc(OC)c(OC)c(OC)c3)c(C(N)=O)n2)cc1O | 4.47 |  |  | 
5 | CC[C@]1(O)C[C@H]2CN(CCc3c([nH]c4ccccc34)[C@@](C(=O)OC)(c3cc4c(cc3OC)N(C=O)[C@H]3[C@@](O)(C(=O)OC)[C@H](OC(C)=O)[C@]5(CC)C=CCN6CC[C@]43[C@@H]65)C2)C1 [VINCRISTINE] | 5.36 | 7.68 | 207 | 
6 | COc1cc(-c2cc(-c3ccc(Cl)c(N)c3)cc3[nH]cnc23)cc(OC)c1OC | 6.04 | 6.39 | 2.21 | 
7 | COc1cc(-c2cc(C)cc3[nH]cnc23)cc(OC)c1OC | < 4.30 | < 4.30 |  | 
8 | COc1ccc(-c2cc(-c3cc(OC)c(OC)c(OC)c3)c3nc[nH]c3c2)cc1O | 6.62 | 7.23 | 4.06 | 
9 | COc1cc(-c2cc(-c3ccc(C)c(F)c3)cc3[nH]cnc23)cc(OC)c1OC | 6.42 | 6.96 | 3.45 | 
10 | COc1ccc(-c2cc(-c3cc(OC)c(OC)c(OC)c3)c3nc[nH]c3c2)cc1CO | 5.80 | 6.33 | 3.36 | 
11 | COc1ccc(-c2nc(Nc3cc(OC)c(OC)c(OC)c3)c3ncn(C)c3n2)cc1F | 5.41 | 5.92 | 3.23 | 
12 | COc1ccc(-c2nc3c(c(Nc4cc(OC)c(OC)c(OC)c4)n2)CCC3)cc1F | 4.45 | 4.64 | 1.54 | 
13 | CC(=O)O[C@@]12CO[C@@H]1C[C@H](O)[C@@]1(C)C(=O)[C@H](O)C3=C(C)[C@@H](OC(=O)[C@H](O)[C@@H](NC(=O)OC(C)(C)C)c4ccccc4)C[C@@](O)([C@@H](OC(=O)c4ccccc4)[C@H]21)C3(C)C [DOCETAXEL ANHYDROUS] | 5.11 | 9.00 | 7840 | Activity (A549/TR [3]): Active
14 | COc1ccc(-c2cc(Oc3cc(OC)c(OC)c(OC)c3)c3ncn(C)c3c2)cc1F | 6.39 | 6.70 | 2.05 | 
15 | COc1ccc(-c2nc(Nc3cc(OC)c(OC)c(OC)c3)c3cccnc3n2)cc1F | < 4.30 | 5.27 | >9.43 | 
16 | COc1ccc(-c2cc3[nH]c(=O)[nH]c3c(Oc3cc(OC)c(OC)c(OC)c3)n2)cc1F | 4.66 |  |  | 
17 | COc1cc(-c2cc(Br)cc3[nH]cnc23)cc(OC)c1OC | 4.43 | 4.54 | 1.28 | 
18 | COc1ccc(-c2cc(-c3cc(OC)c(OC)c(OC)c3)c3nc[nH]c3c2)cc1N | 6.80 | 7.48 | 4.84 | 
19 | COc1cc2c(c(OC)c1OC)-c1ccc(OC)c(=O)cc1[C@@H](NC(C)=O)CC2 [COLCHICINE] | 6.55 | 7.66 | 12 | Activity (A549/TR [3]): Active
20 | COc1ccc(-c2cc(-c3cc(OC)c(OC)c(OC)c3)c3nc[nH]c3c2)cc1 | 5.82 | 6.11 | 1.94 | 
21 | COc1ccc(-c2cc(-c3cc(OC)c(OC)c(OC)c3)c3nc(C)[nH]c3c2)cc1F | 4.99 | 5.27 | 1.9 | 
22 | COc1ccc(-c2nc3c(c(Nc4cc(OC)c(OC)c(OC)c4)n2)SCC3)cc1F | < 4.30 | < 4.30 |  | 
23 | COc1cc(-c2cccc3[nH]cnc23)cc(OC)c1OC | < 4.30 | < 4.30 |  | 
24 | CCC1=C[C@@H]2CN(C1)Cc1c([nH]c3ccccc13)[C@@](C(=O)OC)(c1cc3c(cc1OC)N(C)[C@H]1[C@@](O)(C(=O)OC)[C@H](OC(C)=O)[C@]4(CC)C=CCN5CC[C@]31[C@@H]54)C2 |  |  |  | Activity (A549/TR [3]): Active

Row | Structure (SMILES) | pIC50 (A549/TR [1]) | pIC50 (A549) | Ratio IC50 [2] | also measured
25 | COc1ccc(-c2cc(-c3cc(OC)c(OC)c(OC)c3)c3nc[nH]c3c2)cc1F | 6.52 | 6.96 | 2.73 | 
26 | COc1ccc(-c2cc(Oc3cc(OC)c(OC)c(OC)c3)c3nc[nH]c3c2)cc1F | 4.99 | 5.29 | 1.99 | 
27 | COc1ccc(-c2cc(-c3cc(OC)c(OC)c(OC)c3)c3cc[nH]c3c2)cc1F | 4.80 | 5.32 | 3.29 | 
28 | CCOc1ccc(-c2cc(-c3cc(OC)c(OC)c(OC)c3)c3nc[nH]c3c2)cc1 | 5.53 | 5.99 | 2.86 | 
29 | COc1ccc(Nc2nc(Nc3cc(OC)c(OC)c(OC)c3)c3ccccc3n2)cc1F | 4.96 | 5.56 | 3.96 | 
30 | COc1ccc(-c2cncc3[nH]c(=O)n(-c4cc(OC)c(OC)c(OC)c4)c23)cc1F | < 4.30 |  |  | 
31 | COc1cc(-c2cc(Cl)cc3[nH]cnc23)cc(OC)c1OC | < 4.30 | < 4.30 |  | 
32 | COc1ccc(-c2nc(N(C)c3cc(OC)c(OC)c(OC)c3)c3ncn(C)c3n2)cc1F | 4.78 | 5.00 | 1.67 | 
33 | O=C(c1ccc(F)cc1)C1CCN(CCn2c(=O)[nH]c3ccccc3c2=O)CC1 [KETANSERIN] |  |  |  | half-life [4]: 37 min; CLint scaled [5]: 47 mL/min/kg; half-life [6]: 13 min; CLint scaled [7]: 419 mL/min/kg
34 | COc1cc(-c2cc(-c3ccc(C4CC4)cc3)cc3[nH]cnc23)cc(OC)c1OC | 5.17 | 5.31 | 1.34 | 
35 | COc1ccc(-c2cc(-c3ccccc3OC)c3nc[nH]c3c2)cc1N | 6.46 | 6.85 | 2.5 | 
36 | COc1ccc(-c2cc(-c3cc(OC)c(OC)c(OC)c3)c3nc[nH]c3c2)cn1 | 6.41 | 6.54 | 1.34 | 
37 | COc1ccc(-c2cc(-c3ccc(OC)c(N)c3)cc3[nH]cnc23)cc1 | 4.78 | 4.96 | 1.5 | 
38 | COc1cc(-c2cc(-c3ccc(C)cc3)cc3[nH]cnc23)cc(OC)c1OC | 6.01 | 6.17 | 1.42 | 
39 | COc1ccc(-c2cncc3[nH]c(=O)n(-c4cc(OC)c(OC)c(OC)c4)c23)cc1O | < 4.30 |  |  | 
40 | COc1ccc(-c2cc(-c3cc(OC)c(OC)c(OC)c3)c3[nH]c(=O)[nH]c3c2)cc1F | 5.52 | 5.90 | 2.37 | 
41 | COc1ccc(-c2nc3cnccc3n2-c2cc(OC)c(OC)c(OC)c2)cc1O | < 4.30 |  |  | 
42 | COc1cc(-c2cc(-c3ccc(C)c(N)c3)cc3[nH]cnc23)cc(OC)c1OC | 6.30 | 6.62 | 2.08 | 
43 | COc1ccc(-c2cc(-c3cc(OC)c(OC)c(OC)c3)c3nc(C)[nH]c3c2)cc1O | 5.72 | 6.28 | 3.58 | 
44 | COc1ccc(-c2cncc3[nH]c(=O)n(Cc4cc(OC)c(OC)c(OC)c4)c23)cc1O | < 4.30 |  |  | 
45 | COc1ccc(-c2nc(Nc3cc(OC)c(OC)c(OC)c3)c3ccccc3n2)cc1F | < 4.30 | 4.99 | >4.84 | 
46 | COc1cc(-c2cc(-c3ccc(C)c(O)c3)cc3[nH]cnc23)cc(OC)c1OC | 6.05 | 6.72 | 4.68 | 
47 | COc1ccc(-c2cc(-c3cc(OC)c(OC)c(OC)c3)c3[nH]c(=O)[nH]c3c2)cc1O | 6.33 | 6.54 | 1.62 | 
48 | COc1ccc(-n2c(=O)[nH]c3cnc(-c4cc(OC)c(OC)c(OC)c4)cc32)cc1O | < 4.30 |  |  | 
